# System: Arabidopsis thaliana seed germination
# Assay: Arabidopsis seed germination assay (promotion of germination in the presence of (S)-ABA)
# Type: in vivo
# Set-up: key to Rating: Arabidopsis seed germination promotion activity: −: Seeds germinated at approximately the same time as those treated with 0.3 ppm of (S)-ABA alone (i.e., treatment with the 2′-vinyl-(S)-ABA derivative showed no measurable effect in this assay configuration).; +: Seeds germinated 1 to 4 days earlier than those treated with 0.3 ppm of (S)-ABA alone.; ++: Seeds germinated 5 to 7 days earlier than those treated with 0.3 ppm of (S)-ABA alone.; +++: Seeds germinated 8 to 10 days earlier than those treated with 0.3 ppm of (S)-ABA alone
# Details: for Rating: Arabidopsis seed germination promotion activity: 30 ppm compound in the presence of 0.3 ppm (S)-ABA, scored on day 14; for antagonist nature compared to (S)-ABA: seed germination assay, 30 ppm with 0.3 ppm (S)-ABA
# Experimental: To determine whether the (S)-ABA derivatives of the present invention were effective antagonists, germination assays were performed with the model plant Arabidopsis thaliana. If the compounds are found to be antagonists, they may be useful to counter any undesirable side effects of (S)-ABA.
# Arabidopsis seed was sterilized by shaking for five minutes in 200 proof ethanol, followed by shaking for five minutes in a 10% bleach solution. The seeds were then washed five times in sterile, distilled, de-ionized water and suspended in 0.1% phytoagar. The tubes containing the seeds were wrapped in aluminum foil and stratified at 4° C. for two days.
# All compounds were tested at a concentration of 30 ppm in the presence or absence of 0.3 ppm (S)-ABA, in 24-well plates. For each compound, a 1000 ppm stock solution was prepared in distilled, deionized water containing 5% DMSO. The stock test solution (15 μL) was added to each well, plus or minus 1.5 μL of 100 ppm (S)-ABA in 5% DMSO. Appropriate amounts of distilled, de-ionized water was added to equalize volumes, and 450 μL of ½×Murashige and Skoog media containing 1.2% Bactoagar was then added to each well (final DMSO concentration was 0.5%). When the media solidified, ten to 15 sterile stratified Arabidopsis seeds were distributed into each well using a repeat pipettor. The plates were sealed with surgical tape and placed in a growth chamber running diurnal cycles of 12 hours of light at 24° C. and 12 hours of darkness at 19° C. The plates were scanned on days 3 through 14, and scored on day 14. The (S)-2′-vinyl-substituted ABA derivatives were scored on ability to promote germination in the presence of (S)-ABA. The results are summarized below in “Table 1: Arabidopsis seed germination promotion activity of 2′-vinyl-(S)-ABA derivatives.”
SMILES,Rating: Arabidopsis seed germination promotion activity,antagonist nature compared to (S)-ABA
"CC1=CC(=O)CC(C)(C)[C@@]1(O)/C=C/C(C)=C/C(=O)O [(S)-ABA, (S)-abscisic acid, reference compound]",−,
CC(=C/C(=O)O)/C=C/[C@@]1(O)C(/C=C/c2cc(C(F)(F)F)ccc2Cl)=CC(=O)CC1(C)C [Compound 1],++ (Seeds germinated 5 to 7 days earlier than those treated with 0.3 ppm of (S)-ABA alone.),
CC(=C/C(=O)O)/C=C/[C@@]1(O)C(/C=C/c2ccc(F)cc2)=CC(=O)CC1(C)C [Compound 2],+ (Seeds germinated 1 to 4 days earlier than those treated with 0.3 ppm of (S)-ABA alone.),
CC(=C/C(=O)O)/C=C/[C@@]1(O)C(/C=C/c2ccc(C#N)cc2)=CC(=O)CC1(C)C [Compound 3],++ (Seeds germinated 5 to 7 days earlier than those treated with 0.3 ppm of (S)-ABA alone.),
CC(=C/C(=O)O)/C=C/[C@@]1(O)C(/C=C/c2ccc(C)cc2)=CC(=O)CC1(C)C [Compound 4],+++ (Seeds germinated 8 to 10 days earlier than those treated with 0.3 ppm of (S)-ABA alone.),antagonists of (S)-ABA
CC(=C/C(=O)O)/C=C/[C@@]1(O)C(/C=C/c2c(Cl)cccc2Cl)=CC(=O)CC1(C)C [Compound 5],−,
CC(=C/C(=O)O)/C=C/[C@@]1(O)C(/C=C/c2c(F)cccc2F)=CC(=O)CC1(C)C [Compound 6],−,
CC(=C/C(=O)O)/C=C/[C@@]1(O)C(/C=C/c2c(F)cccc2Cl)=CC(=O)CC1(C)C [Compound 7],++ (Seeds germinated 5 to 7 days earlier than those treated with 0.3 ppm of (S)-ABA alone.),
CC(=C/C(=O)O)/C=C/[C@@]1(O)C(/C=C/c2ccc(F)c(Cl)c2)=CC(=O)CC1(C)C [Compound 8],+++ (Seeds germinated 8 to 10 days earlier than those treated with 0.3 ppm of (S)-ABA alone.),antagonists of (S)-ABA
COC(=O)/C=C(C)\C=C\[C@@]1(O)C(/C=C/c2ccc(Cl)c(F)c2)CC(=O)CC1(C)C (some centres unmarked) [Compound 9],++ (Seeds germinated 5 to 7 days earlier than those treated with 0.3 ppm of (S)-ABA alone.),
COC(=O)/C=C(C)\C=C\[C@@]1(O)C(/C=C/c2ccccc2F)=CC(=O)CC1(C)C [Compound 10],−,
COC(=O)/C=C(C)\C=C\[C@@]1(O)C(/C=C/c2ccc(OC)c(C#N)c2)=CC(=O)CC1(C)C [Compound 11],−,
COC(=O)/C=C(C)\C=C\[C@@]1(O)C(/C=C/c2ccccc2Cl)=CC(=O)CC1(C)C [Compound 12],+ (Seeds germinated 1 to 4 days earlier than those treated with 0.3 ppm of (S)-ABA alone.),
COC(=O)/C=C(C)\C=C\[C@@]1(O)C(/C=C/c2cccc(C(F)(F)F)c2Cl)=CC(=O)CC1(C)C [Compound 13],+ (Seeds germinated 1 to 4 days earlier than those treated with 0.3 ppm of (S)-ABA alone.),
COC(=O)/C=C(C)\C=C\[C@@]1(O)C(/C=C/c2ccc(Cl)c(C(F)(F)F)c2)=CC(=O)CC1(C)C [Compound 14],++ (Seeds germinated 5 to 7 days earlier than those treated with 0.3 ppm of (S)-ABA alone.),
COC(=O)/C=C(C)\C=C\[C@@]1(O)C(/C=C/c2ccc(Cl)cc2Cl)=CC(=O)CC1(C)C [Compound 15],++ (Seeds germinated 5 to 7 days earlier than those treated with 0.3 ppm of (S)-ABA alone.),
CC(=C/C(=O)O)/C=C/[C@@]1(O)C(/C=C/c2cc(Cl)cc(Cl)c2)=CC(=O)CC1(C)C [Compound 16],++ (Seeds germinated 5 to 7 days earlier than those treated with 0.3 ppm of (S)-ABA alone.),
CC(=C/C(=O)O)/C=C/[C@@]1(O)C(/C=C/c2cccc(Cl)c2)=CC(=O)CC1(C)C [Compound 17],−,
